The record followed here is patent US11667649B2, “Heteroaromatic macrocyclic ether chemotherapeutic agents” (Nuvalent, Inc., priority 2020, dated 2023).

Test [1] has as its target T1, ALK L1196M/G1202R kinase domain (Homo sapiens, UniProt Q9UM73, G1202R/L1196M).
T1 construct: TRKA-wt (1 nM, BPS Bio, 40280) kinase domains in buffer; purchased SignalChem A19-12NG
Briefly: Biochemical kinase assay, ALK L1196M/G1202R. To be noted: 2 mM ATP substrate solution, read-out: Ki^app ALK-L1196M-G1202R. Here is the method: (§1) First, 250 nL of compound dissolved in DMSO (100-fold of the desired concentration) was dispensed into a 384-well plate. A 12.5 μL substrate solution containing ATP (2 mM) and fluorogenic phosphorylation substrate AQT0101 (26 μM for ALK and ROS1, AssayQuant) or AQT0104 (26 μM for TRKA, AssayQuant) in buffer (50 mM HEPES pH 7.5, 0.01% Brij-35, 0.5 mM EGTA, 10 mM MgCl2) was added and mixed thoroughly. Then, a 12.5 μL kinase solution containing ALK-wt (1.5 nM, Carna, 08-518), ALK ALK L1196M/G1202R (3 nM, SignalChem, A19-12NG), ROS1-wt (0.6 nM, Carna, 08-163), ROS1-G2032R (0.5 nM, SignalChem, R14-12BG), or TRKA-wt (1 nM, BPS Bio, 40280) kinase domains in buffer ([…] HEPES pH 7.5, 0.01% Brij-35, 2% glycerol, 0.4 mg/mL BSA, 0.5 mM EGTA, and 10 mM MgCl2) was added and mixed thoroughly. The plate was sealed and read by SpectraMax Paradigm at λ=485 nm every 2 minutes for 120 minutes at 30° C. Initial rates of reaction (v) were calculated from the change in fluorescence intensity over time during the initial, linear portion of the reaction. Finally, apparent inhibitory constants (Ki^app) were determined from regression of v and I (inhibitor concentration) to Morrison Equation (E=enzyme concentration): […]

Another test has as its target T2, TRKA-wt kinase domain (Homo sapiens, UniProt P04629).
T2 construct: TRKA-wt (1 nM, BPS Bio, 40280) kinase domains in buffer; purchased BPS Bio 40280
Briefly: Biochemical kinase assay, TRKA-wt. To be noted: 2 mM ATP substrate solution, read-out: Ki^app TRKA-wt. How it is done: as §1

The target of the next test is T3, ROS1-wt kinase domain (Homo sapiens, UniProt P08922).
T3 construct: TRKA-wt (1 nM, BPS Bio, 40280) kinase domains in buffer; purchased Carna 08-163
Briefly: Biochemical kinase assay, ROS1-wt. To be noted: 2 mM ATP substrate solution, read-out: Ki^app ROS1-wt. How it is done: as §1

The next test has as its target T4, ALK-wt kinase domain (Homo sapiens, UniProt Q9UM73).
T4 construct: TRKA-wt (1 nM, BPS Bio, 40280) kinase domains in buffer; purchased Carna 08-518
In words: Biochemical kinase assay, ALK-wt. The note with it: 2 mM ATP substrate solution, read-out: Ki^app ALK-wt. Here is the method: as §1

Test [2] deals with T5, ROS1-G2032R kinase domain (Homo sapiens, UniProt P08922, G2032R).
T5 construct: TRKA-wt (1 nM, BPS Bio, 40280) kinase domains in buffer; purchased SignalChem R14-12BG
In words: Biochemical kinase assay, ROS1-G2032R. To be noted: 2 mM ATP substrate solution, read-out: Ki^app ROS1-G2032R. How it is done: as §1

Test [3] has as its system TPM3-NTRK1-wt IC50 / primary target (e.g. CD74-ROS1-wt) IC50, Ba/F3 cells. In words: Cell assay TRKA selectivity (TRKA potency divided by primary target potency). The class given is cell-based. In short, it runs like this:
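Ratio of TRKA to primary-target cellular IC50 (e.g. TPM3-NTRK1-wt/CD74-ROS1-wt), grouped into bins A >30, B >10, C ≥1, D <1. Each IC50 came from engineered Ba/F3 fusion lines grown without IL-3, dosed for 72 h and read as CellTiter-Glo luminescence, with a four-parameter logistic fit.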

For the compound `CCn1ncc2c1-c1cnc(N)c(c1)O[C@H](C)c1cc(F)ccc1-c1nn(C)cc1C2` [Compound 1], the Ki (in test [1]; on TRKA-wt kinase domain; on ROS1-wt kinase domain; at ALK-wt kinase domain; in test [2]) was less than 0.05 µM in each case.
`CC1Oc2cc(cnc2N)-c2c(cnn2C)Cc2cnn(C)c2-c2ccc(F)cc21` (centres unmarked) [Compound 2]: the Ki is 0.05 to 0.5 µM in test [1]; 0.05 to 0.5 µM on TRKA-wt kinase domain; less than 0.05 µM on ROS1-wt kinase domain; less than 0.05 µM on ALK-wt kinase domain; less than 0.05 µM in test [2].
Regarding `CCn1ncc2c1-c1cnc(N)c(c1)O[C@H](C)c1cc(F)ccc1-c1ncccc1C2` [Compound 3], the Ki (in test [1]; on TRKA-wt kinase domain; on ROS1-wt kinase domain; on ALK-wt kinase domain; in test [2]) was less than 0.05 µM in each case.
As to `CCn1ncc2c1-c1ccc(F)cc1[C@@H](C)Oc1cc(cnc1N)-c1c(cnn1C)C2` [Compound 4], the Ki (in test [1]; on TRKA-wt kinase domain; at ROS1-wt kinase domain; at ALK-wt kinase domain; in test [2]) was less than 0.05 µM each time.
Turning to `C[C@H]1Oc2cc(cnc2N)-c2c(cnn2C2CCC2)Cc2cnn(C)c2-c2ccc(F)cc21` [Compound 5], the Ki in test [1] is less than 0.05 µM; on TRKA-wt kinase domain, more than 0.5 µM; on ROS1-wt kinase domain, less than 0.05 µM; on ALK-wt kinase domain, less than 0.05 µM; in test [2], less than 0.05 µM.
As for `CCc1c(C#N)nn2c1-c1cnc(N)c(c1)O[C@H](C)c1cc(F)ccc1-c1nn(C)cc1C2` [Compound 6], the Ki in test [1] was less than 0.05 µM; at TRKA-wt kinase domain, 0.05 to 0.5 µM; on ROS1-wt kinase domain, less than 0.05 µM; at ALK-wt kinase domain it was less than 0.05 µM; in test [2], less than 0.05 µM.
With `C[C@H]1Oc2cc(cnc2N)-c2c(C#N)cnn2Cc2cn(C)nc2-c2ccc(F)cc21` [Compound 9], the Ki in test [1] was less than 0.05 µM; on TRKA-wt kinase domain it was more than 0.5 µM; at ROS1-wt kinase domain, less than 0.05 µM; at ALK-wt kinase domain, less than 0.05 µM; in test [2] it was less than 0.05 µM.
Regarding `C[C@H]1Oc2cc(cnc2N)-c2c(C#N)ncn2Cc2cnccc2-c2ccc(F)cc21` [Compound 10], the Ki in test [1] was less than 0.05 µM; at TRKA-wt kinase domain, more than 0.5 µM; at ROS1-wt kinase domain, less than 0.05 µM; on ALK-wt kinase domain it was less than 0.05 µM; in test [2], less than 0.05 µM.
As to `C[C@H]1Oc2cc(cnc2N)-c2c(C#N)ncn2Cc2ccncc2-c2ccc(F)cc21` [Compound 11], the Ki is 0.05 to 0.5 µM in test [1]; more than 0.5 µM at TRKA-wt kinase domain; less than 0.05 µM on ROS1-wt kinase domain; less than 0.05 µM on ALK-wt kinase domain; less than 0.05 µM in test [2].
For `C[C@H]1Oc2cc(cnc2N)-c2c(C#N)ncn2Cc2cccnc2-c2ccc(F)cc21` [Compound 12], the Ki in test [1] was less than 0.05 µM; at TRKA-wt kinase domain, more than 0.5 µM; on ROS1-wt kinase domain, less than 0.05 µM; at ALK-wt kinase domain, less than 0.05 µM; in test [2], less than 0.05 µM.
Turning to `C[C@H]1Oc2cc(cnc2N)-c2c(C#N)ncn2Cc2cn(C)nc2-c2ccc(F)cc21` [Compound 13], the Ki in test [1] is less than 0.05 µM; at TRKA-wt kinase domain, more than 0.5 µM; at ROS1-wt kinase domain it was less than 0.05 µM; on ALK-wt kinase domain it was less than 0.05 µM; in test [2] it was less than 0.05 µM.
As for `C[C@H]1Oc2cc(cnc2N)-c2c(C#N)cnn2Cc2cccnc2-c2ccc(F)cc21` [Compound 14], the Ki in test [1] was less than 0.05 µM; at TRKA-wt kinase domain, 0.05 to 0.5 µM; on ROS1-wt kinase domain it was less than 0.05 µM; at ALK-wt kinase domain, less than 0.05 µM; in test [2], less than 0.05 µM.
Turning to `C[C@H]1Oc2cc(cnc2N)-c2c(C#N)noc2Cc2cn(C)nc2-c2ccc(F)cc21` [Compound 15], the Ki in test [1] is less than 0.05 µM; on TRKA-wt kinase domain, more than 0.5 µM; on ROS1-wt kinase domain, less than 0.05 µM; on ALK-wt kinase domain it was less than 0.05 µM; in test [2], less than 0.05 µM.
For `CCc1nnn2c1-c1cnc(N)c(c1)O[C@H](C)c1cc(F)ccc1-c1ncc(F)cc1C2` [Compound 16], the Ki in test [1] is less than 0.05 µM; at TRKA-wt kinase domain it was 0.05 to 0.5 µM; at ROS1-wt kinase domain, less than 0.05 µM; on ALK-wt kinase domain, less than 0.05 µM; in test [2] it was less than 0.05 µM.
As to `C[C@H]1Oc2cc(cnc2N)-c2c(C(F)F)cnn2Cc2cc(F)cnc2-c2ccc(F)cc21` [Compound 17], the Ki in test [1] was 0.05 to 0.5 µM; on TRKA-wt kinase domain, 0.05 to 0.5 µM; at ROS1-wt kinase domain, less than 0.05 µM; at ALK-wt kinase domain it was less than 0.05 µM; in test [2], 0.05 to 0.5 µM.
Regarding `Cc1nc(C#N)c2n1Cc1cccnc1-c1ccc(F)cc1[C@@H](C)Oc1cc-2cnc1N` [Compound 18], the Ki was less than 0.05 µM in test [1]; more than 0.5 µM at TRKA-wt kinase domain; less than 0.05 µM at ROS1-wt kinase domain; less than 0.05 µM at ALK-wt kinase domain; less than 0.05 µM in test [2].
As for `CCc1noc2c1-c1cnc(N)c(c1)O[C@H](C)c1cc(F)ccc1-c1nn(C)cc1C2` [Compound 19], the Ki (in test [1]; on TRKA-wt kinase domain; at ROS1-wt kinase domain; at ALK-wt kinase domain; in test [2]) was less than 0.05 µM in each case.
Regarding `CCn1nnc2c1-c1cnc(N)c(c1)O[C@H](C)c1cc(F)ccc1-c1nn(C)cc1C2` [Compound 20], the Ki in test [1] is less than 0.05 µM; at TRKA-wt kinase domain, 0.05 to 0.5 µM; at ROS1-wt kinase domain, less than 0.05 µM; at ALK-wt kinase domain it was less than 0.05 µM; in test [2] it was less than 0.05 µM.
Take `C[C@H]1Oc2cc(cnc2N)-c2c(cnn2CC(F)F)Cc2cn(C)nc2-c2ccc(F)cc21` [Compound 22]: the Ki was less than 0.05 µM in test [1]; more than 0.5 µM at TRKA-wt kinase domain; less than 0.05 µM on ROS1-wt kinase domain; less than 0.05 µM on ALK-wt kinase domain; less than 0.05 µM in test [2].
In the case of `C[C@H]1Oc2cc(cnc2N)-c2c(C#N)nnn2Cc2cn(C)nc2-c2ccc(F)cc21` [Compound 24], the Ki in test [1] is less than 0.05 µM; at TRKA-wt kinase domain it was more than 0.5 µM; on ROS1-wt kinase domain, less than 0.05 µM; on ALK-wt kinase domain, less than 0.05 µM; in test [2], 0.05 to 0.5 µM.
In the case of `CCn1ncc2c1-c1cnc(N)c(c1)O[C@H](C)c1cc(F)ccc1-n1ncc(F)c1C2` [Compound 46], the Ki (in test [1]; at TRKA-wt kinase domain; at ALK-wt kinase domain; in test [2]) was less than 0.05 µM in each case.
Turning to `C[C@H]1Oc2cc(cnc2N)-c2c(cnn2CC2(C)CC2)Cc2cn(C)nc2-c2ccc(F)cc21` [Compound 159], the Ki in test [1] is less than 0.05 µM; on TRKA-wt kinase domain, more than 0.5 µM; at ALK-wt kinase domain, less than 0.05 µM.
For `CCc1nn(C)c2c1-c1cnc(N)c(c1)O[C@H](C)c1cc(F)ccc1-c1nc(C)sc1C2` [Compound 173], the Ki (in test [1]; on TRKA-wt kinase domain) was less than 0.05 µM in each case.
Regarding `CCn1nc(OC)c2c1-c1cnc(N)c(c1)O[C@H](C)c1cc(F)ccc1-c1nn(C)cc1C2` [Example 181, (19R)-3-ethyl-16-fluoro-5-methoxy-10,19-dimethyl-20-oxa-3,4,10,11,23-pentaazapentacyclo[19.3.1.0^2,^6.0^8,^12.0^13,^18]pentacosa-1(24),2(6),4,8,11,13,15,17,21(25),22-decaen-22-amine], the TPM3-NTRK1-wt/CD74-ROS1-G2032R entry in test [3] (TRKA selectivity ratio: TPM3-NTRK1-wt IC50 / CD74-ROS1-G2032R IC50, Ba/F3 cells) is reported as “A (bin A for very high selectivity, ratio>30-fold)”. Also, the TPM3-NTRK1-wt/CD74-ROS1-wt result in test [3] (TRKA selectivity ratio: TPM3-NTRK1-wt IC50 / CD74-ROS1-wt IC50, Ba/F3 cells) is “A (bin A for very high selectivity, ratio>30-fold)”. Also, the TPM3-NTRK1-wt/EML4-ALK-L1196M-G1202R entry in test [3] (TRKA selectivity ratio: TPM3-NTRK1-wt IC50 / EML4-ALK-L1196M-G1202R IC50, Ba/F3 cells) is reported as “C (bin C for moderate selectivity, ratio≥1)”. In addition, in test [3] (TRKA selectivity ratio: TPM3-NTRK1-wt IC50 / EML4-ALK-wt IC50, Ba/F3 cells), the TPM3-NTRK1-wt/EML4-ALK-wt entry is reported as “A (bin A for very high selectivity, ratio>30-fold)”.
